Consider nine compounds from PubChem BioAssay AID1963841 (Molecular Pharmacology Branch, DTP, NCI, 2024).

Several values for one entry are separate records, joined by “and”; a condition that tells them apart may be missing. Equal values may be shown once. A value given as a limit tells only on which side of the number the result lay.

In the test the test system is 439559-082-T-J2-PDC spheroid viability. Description: Anticancer human tumor 439559-082-T-J2-PDC patient-derived colon adenocarcinoma cell line growth inhibition [POLQ]. As to conditions: spheroids with HUVEC and MSC; for viability, T/C: stronger effect = lower value. A digest of the protocol:
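PDC + HUVEC + MSC complex spheroids; POLQ inhibitors ± partner drugs; top conc. at/near clinical Cmax, else 10 microM (SN-38 1 microM), half-log dilutions; 37 degrees C, 5% CO2.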

The mark [1] stands for this setting: curve of first compound, second compound 0.0316 µM.
[2] abbreviates: curve of first compound, second compound 0.1 µM.
The mark [3] stands for this setting: curve of first compound, second compound 0.316 µM.
Where [4] appears, read: curve of first compound, second compound 1 µM.
Setting [5] is: curve of first compound, second compound 3.16 µM.
Setting [6] is: curve of first compound, second compound 10 µM.
Where [7] appears, read: second compound 0.0316 µM, first compound 0.0316 µM.
Where [8] appears, read: second compound 0.0316 µM, first compound 0.1 µM.
[9] abbreviates: second compound 0.0316 µM, first compound 0.316 µM.
Setting [10] is: second compound 0.0316 µM, first compound 1 µM.
Where [11] appears, read: second compound 0.0316 µM, first compound 3.16 µM.
Setting [12] is: second compound 0.0316 µM, first compound 10 µM.
The mark [13] stands for this setting: second compound 0.1 µM, first compound 0.0316 µM.
[14] abbreviates: second compound 0.1 µM, first compound 0.1 µM.
The mark [15] stands for this setting: second compound 0.1 µM, first compound 0.316 µM.
The mark [16] stands for this setting: second compound 0.1 µM, first compound 1 µM.
The mark [17] stands for this setting: second compound 0.1 µM, first compound 3.16 µM.
Setting [18] is: second compound 0.1 µM, first compound 10 µM.
The mark [19] stands for this setting: second compound 0.316 µM, first compound 0.0316 µM.
[20] abbreviates: second compound 0.316 µM, first compound 0.1 µM.
[21] abbreviates: second compound 0.316 µM, first compound 0.316 µM.
[22] abbreviates: second compound 0.316 µM, first compound 1 µM.
Setting [23] is: second compound 0.316 µM, first compound 3.16 µM.
Setting [24] is: second compound 0.316 µM, first compound 10 µM.
Where [25] appears, read: second compound 1 µM, first compound 0.0316 µM.
Setting [26] is: second compound 1 µM, first compound 0.1 µM.
[27] abbreviates: second compound 1 µM, first compound 0.316 µM.
The mark [28] stands for this setting: second compound 1 µM, first compound 1 µM.
The mark [29] stands for this setting: second compound 1 µM, first compound 3.16 µM.
Setting [30] is: second compound 1 µM, first compound 10 µM.
Where [31] appears, read: second compound 3.16 µM, first compound 0.0316 µM.
Where [32] appears, read: second compound 3.16 µM, first compound 0.1 µM.
Where [33] appears, read: second compound 3.16 µM, first compound 0.316 µM.
Setting [34] is: second compound 3.16 µM, first compound 1 µM.
[35] abbreviates: second compound 3.16 µM, first compound 3.16 µM.
Where [36] appears, read: second compound 3.16 µM, first compound 10 µM.
The mark [37] stands for this setting: second compound 10 µM, first compound 0.0316 µM.
Setting [38] is: second compound 10 µM, first compound 0.1 µM.
[39] abbreviates: second compound 10 µM, first compound 0.316 µM.
[40] abbreviates: second compound 10 µM, first compound 1 µM.
Setting [41] is: second compound 10 µM, first compound 3.16 µM.
The mark [42] stands for this setting: second compound 10 µM, first compound 10 µM.
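Note: spheroids exposed to compounds for seven days before readout.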
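Throughout, for viability, T/C: 100% = DMSO vehicle control viability.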

In the case of `COc1ccc([C@@H](O)c2cc(-c3ncnc4cc(N5CCOCC5)ccc34)c(F)cc2Cl)nn1`, the viability, T/C – broadly, the ratio of treated to control – by setting is: (compound 0.0316 µM) 94.6% and 84.4% and 97.3%; (compound 0.1 µM) 98.2% and 88.9% and 93%; (compound 0.316 µM) 93.3% and 85.8% and 90.6%; (compound 1 µM) 103% and 90.1% and 94.2%; (compound 3.16 µM) 89.3% and 96.5% and 85.9%; (compound 10 µM) 82.2% (2×) and 75.2%. In addition, under “curve of compound”, the IC50 (commonly the point on the concentration scale where inhibition reaches its midpoint) was greater than 10 µM.

`COc1cc2cc(C(=O)CCC(=O)O)sc2cc1OC`: the viability, T/C is 109% and 97.5% and 94.4% (compound 0.0316 µM); 93.8% and 82% and 103% (compound 0.1 µM); 89.1% and 98.4% and 98.9% (compound 0.316 µM); 95.2% and 100% and 99.7% (compound 1 µM); 95.2% and 91.9% and 97% (compound 3.16 µM); 87.7% and 100% (2×) (compound 10 µM). Also, the IC50 (curve of compound) is greater than 10 µM.

For `Nc1ccn(C2OC(CO)C(O)C2(F)F)c(=O)n1` (configuration not stated), the viability, T/C was 84.5% and 77.1% and 81% (compound 0.0316 µM); 68.2% and 74.4% and 72% (compound 0.1 µM); 58.2% and 59% and 56.6% (compound 0.316 µM); 49.8% and 43.5% and 39.9% (compound 1 µM); 36.5% and 35.1% and 30.8% (compound 3.16 µM); 31.1% and 26.7% and 27.3% (compound 10 µM). Further, the IC50 (curve of compound) is 0.767 µM and 0.656 µM and 0.496 µM.

For the compound `Cc1cccc(N(C)C(=O)C2C(O)CCN2c2nc(C)cc(C(F)(F)F)c2C#N)c1` (configuration not stated), the viability, T/C reads like this: (compound 0.0316 µM) 98.9% [middle of 12 runs]; (compound 0.1 µM) 95.7% [middle of 12 runs]; (compound 0.316 µM) 97.4% [middle of 12 runs]; (compound 1 µM) 98.2% [middle of 12 runs]; (compound 3.16 µM) 97% [middle of 12 runs]; (compound 10 µM) 101% [middle of 12 runs]. The IC50 runs as follows: (compound alone, run of 11/27/2023) greater than 10 µM; (compound alone, run of 12/05/2023) greater than 10 µM.

Take `CC1COCCN1c1cc(-c2ccnn2C)c2ccnc(-c3ccn[nH]3)c2n1` (configuration not stated): the viability, T/C is 97.4% and 94.7% and 96.7% (compound 0.0316 µM); 69.8% and 71.2% and 83.1% (compound 0.1 µM); 51.1% and 45.3% and 54.1% (compound 0.316 µM); 46.9% and 43.4% and 49.2% (compound 1 µM); 43.8% and 39.4% and 49.2% (compound 10 µM).

For `CC1COCCN1c1cc(C2(S(C)(=N)=O)CC2)nc(-c2ccnc3[nH]ccc23)n1` (configuration not stated) + Nc1ccc(C#CCN(C(=O)Cc2ncc(C(F)(F)F)cc2C(F)(F)F)c2ccc(F)cc2)nn1, the IC50 under setting [1] was greater than 10 µM; the IC50 under setting [2] is greater than 10 µM; the IC50 under setting [3] is greater than 10 µM; the IC50 under setting [4] is greater than 10 µM; the IC50 under setting [5] is greater than 10 µM; the IC50 under setting [6] is greater than 10 µM. Further, the viability, T/C reads like this: under setting [7], 98.7%; under setting [8], 98.4%; under setting [9], 88.9%; under setting [10], 95.8%; under setting [11], 89%; under setting [12], 74.7%. The viability, T/C is, setting by setting: under setting [13], 99.4%; under setting [14], 91%; under setting [15], 96.7%; under setting [16], 79.6%; under setting [17], 84.1%; under setting [18], 71.5%. Also, the viability, T/C runs as follows: under setting [19], 94.5%; under setting [20], 115%; under setting [21], 96.3%; under setting [22], 90.8%; under setting [23], 77%; under setting [24], 70.5%. Also, the viability, T/C under setting [25] was 98.3%; the viability, T/C under setting [26] is 105%; the viability, T/C under setting [27] is 98%; the viability, T/C under setting [28] is 96.4%; the viability, T/C under setting [29] was found to be 74.8%; the viability, T/C under setting [30] stood at 65.3%. Also, the viability, T/C amounted to 94.1% under setting [31]; 98.9% under setting [32]; 95.3% under setting [33]; 76% under setting [34]; 83.7% under setting [35]; 67.5% under setting [36]. For the same compound, the viability, T/C was determined as 99.3% under setting [37]; 101% under setting [38]; 86.8% under setting [39]; 94.7% under setting [40]; 84.9% under setting [41]; 72% under setting [42].

For the compound `CC(C)n1c(=O)n(C)c2cnc3cc(F)c(-c4ccc(OCCCN5CCCCC5)nc4)cc3c21` + Nc1ccc(C#CCN(C(=O)Cc2ncc(C(F)(F)F)cc2C(F)(F)F)c2ccc(F)cc2)nn1, the IC50 is, setting by setting: under setting [1], greater than 10 µM; under setting [2], greater than 10 µM; under setting [3], greater than 10 µM; under setting [4], greater than 10 µM; under setting [5], greater than 10 µM; under setting [6], greater than 10 µM. The viability, T/C worked out at 88.2% under setting [7]; 110% under setting [8]; 113% under setting [9]; 105% under setting [10]; 110% under setting [11]; 96.7% under setting [12]. For the same compound, the viability, T/C under setting [13] worked out at 106%; the viability, T/C under setting [14] is 113%; the viability, T/C under setting [15] turned out to be 104%; the viability, T/C under setting [16] is 122%; the viability, T/C under setting [17] is 102%; the viability, T/C under setting [18] is 112%. The viability, T/C by setting is: under setting [19], 103%; under setting [20], 100%; under setting [21], 102%; under setting [22], 109%; under setting [23], 110%; under setting [24], 105%. Further, the viability, T/C was found to be 111% under setting [25]; 99.7% under setting [26]; 101% under setting [27]; 116% under setting [28]; 89.3% under setting [29]; 113% under setting [30]. Moreover, the viability, T/C under setting [31] turned out to be 98.1%; the viability, T/C under setting [32] turned out to be 103%; the viability, T/C under setting [33] was 101%; the viability, T/C under setting [34] was found to be 115%; the viability, T/C under setting [35] was 102%; the viability, T/C under setting [36] was determined as 126%. The viability, T/C runs as follows: under setting [37], 102%; under setting [38], 102%; under setting [39], 110%; under setting [40], 96.7%; under setting [41], 127%; under setting [42], 117%.

With `CC[C@@]1(O)C(=O)OCc2c1cc1n(c2=O)Cc2cc3c(CN(C)C)c(O)ccc3nc2-1`, the viability, T/C is 102% and 87.1% and 100% (compound 0.000316 µM); 101% and 94.2% and 99% (compound 0.001 µM); 100% and 111% and 96.2% (compound 0.00316 µM); 92.8% and 100% and 106% (compound 0.01 µM); 95.1% and 96.1% and 93.2% (compound 0.0316 µM); 88.2% and 77.2% and 75.9% (compound 0.1 µM). Moreover, the IC50 (curve of compound) was greater than 0.1 µM.

In the case of `CC1COCCN1c1cc(C2(O)CC3CCC(C2)O3)c2cnn(-c3ccn[nH]3)c2n1` (configuration not stated), the viability, T/C reads like this: (compound 0.0316 µM) 92.2% and 97.5% and 97.8%; (compound 0.1 µM) 82.7% and 81.3% and 85.3%; (compound 0.316 µM) 70.9% and 70.1% and 75.3%; (compound 1 µM) 61.7% and 59.7% and 72.1%; (compound 3.16 µM) 47.5% and 49% and 59.7%; (compound 10 µM) 46.5% and 47% and 53.5%. For the same compound, the IC50 (curve of compound) is 3.48 µM and 4.1 µM and > 10 µM.
